According to patent publication US20210284638A1 (Saint Louis University, priority 2018, published 2021):
Structures can show the parent of a compound that is named as a salt.

Legend:
[1] = molecular target: T1, Recombinant human integrin αVβ3 (Homo sapiens, UniProt P05106+P06756); assay: Solid Phase Receptor Assay for αVβ3 function; assay type: binding; details: plate-bound human vitronectin; read-out: αVβ3 SPRA IC50
T1 construct: purchased R&D Systems 3050-AV
Experimental: C. […] Wells were washed 3 times with 150 μL TBS+ and then 150 μL of blocking buffer (TBS+ with 1% bovine serum albumin, Sigma A7906) was added. The plate was incubated for 1 hr at 37° C. and then washed 3× with TBS+ buffer. […] Compounds were diluted to 20 μM and then 1 μL was added to each well of the plate according to a standard template with each sample repeated in triplicate. After incubation for two hours at room temperature, the plate was washed 3× with 150 μL of TBS+ buffer. To each well, 50 μL of biotinylated anti-αV antibody (R&D Systems, BAF1219) at 0.5 μg/mL in TBS+/0.1% BSA were added and the plate covered and incubated for 1 hr at room temperature. After washing the plate 3× with 150 μL of TBS+ buffer, 50 μL of streptavidin-conjugated horseradish peroxidase (R&D Systems, DY998) diluted in TBS+ blocking buffer were added to the wells and the plate incubated for 20 min at room temperature. The plate was washed 3× with TBS+ buffer followed by 50 μL of TMB substrate (Sigma, T4444) added to each well in the dark and the plate was incubated for 25 min at room temperature. 25 μL of 1.0 M phosphoric acid was added as a stop solution and the plates were read at 450 nm using a Spectramax plate reader.

[2] = molecular target: T2, Recombinant human integrin αvβ1 (Homo sapiens, UniProt P05556+P06756); assay: Solid Phase Receptor Assay (SPRA) for αVβ1 function; assay type: binding; details: plate-bound human fibronectin
T2 construct: purchased R&D Systems 6579-AV
Experimental: B. Solid Phase Receptor Assay (SPRA) for αVβ1 Function
Wells were washed 3 times with 150 μL TBS+ and then 150 μL of blocking buffer (TBS+ with 1% bovine serum albumin, Sigma A7906) was added. The plate was incubated for 1 hr at 37° C. and then washed 3× with TBS+ buffer. […] Compounds were diluted to 20 μM and 1 μL was added to each well of the plate according to a standard template with each sample repeated in triplicate. After incubation for two hours at room temperature, the plate was washed 3× with 150 μL of TBS+ buffer. To each well, 50 μL of biotinylated anti-αV antibody (R&D Systems, BAF1219) at 1 μg/mL in TBS+/0.1% BSA were added and the plate covered and incubated for 1 hr at room temperature. After washing the plate 3× with 150 μL of TBS+ buffer, 50 μL of streptavidin-conjugated horseradish peroxidase (R&D Systems, DY998) diluted in TBS+ blocking buffer were added to the wells and the plate incubated for 20 min at room temperature. The plate was washed 3× with TBS+ buffer followed by 50 μL of TMB substrate (Sigma, T4444) added to each well in the dark and the plate incubated for 25 min at room temperature. 25 μL of 1.0 M phosphoric acid was added as a stop solution and the plates were read at 450 nm using a Spectramax plate reader.

T1 sequence (P06756 31-992 limits assumed): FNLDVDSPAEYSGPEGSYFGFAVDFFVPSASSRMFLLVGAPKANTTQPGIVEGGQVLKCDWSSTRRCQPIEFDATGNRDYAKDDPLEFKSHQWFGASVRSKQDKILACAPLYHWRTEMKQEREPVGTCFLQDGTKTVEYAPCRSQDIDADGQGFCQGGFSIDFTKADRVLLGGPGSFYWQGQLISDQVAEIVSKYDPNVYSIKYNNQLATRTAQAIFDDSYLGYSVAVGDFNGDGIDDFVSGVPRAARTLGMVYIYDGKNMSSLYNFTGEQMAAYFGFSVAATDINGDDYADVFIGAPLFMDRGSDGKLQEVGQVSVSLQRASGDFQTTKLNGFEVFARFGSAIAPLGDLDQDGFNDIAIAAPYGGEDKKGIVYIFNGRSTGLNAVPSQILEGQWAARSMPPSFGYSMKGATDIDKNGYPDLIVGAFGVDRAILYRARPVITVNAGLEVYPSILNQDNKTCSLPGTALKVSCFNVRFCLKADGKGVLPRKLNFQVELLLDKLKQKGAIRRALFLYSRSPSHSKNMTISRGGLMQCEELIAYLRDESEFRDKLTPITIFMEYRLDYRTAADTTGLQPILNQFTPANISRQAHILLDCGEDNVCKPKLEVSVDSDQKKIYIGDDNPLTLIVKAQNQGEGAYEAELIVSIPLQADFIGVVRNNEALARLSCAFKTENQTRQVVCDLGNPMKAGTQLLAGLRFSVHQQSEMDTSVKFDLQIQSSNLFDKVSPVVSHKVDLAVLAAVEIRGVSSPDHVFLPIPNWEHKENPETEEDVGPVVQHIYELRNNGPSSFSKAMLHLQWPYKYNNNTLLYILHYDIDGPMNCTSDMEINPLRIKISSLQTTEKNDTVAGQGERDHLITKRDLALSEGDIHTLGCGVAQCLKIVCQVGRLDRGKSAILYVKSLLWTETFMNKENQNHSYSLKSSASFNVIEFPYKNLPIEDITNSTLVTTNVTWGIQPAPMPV
T1 sequence (P05106 27-718 limits assumed): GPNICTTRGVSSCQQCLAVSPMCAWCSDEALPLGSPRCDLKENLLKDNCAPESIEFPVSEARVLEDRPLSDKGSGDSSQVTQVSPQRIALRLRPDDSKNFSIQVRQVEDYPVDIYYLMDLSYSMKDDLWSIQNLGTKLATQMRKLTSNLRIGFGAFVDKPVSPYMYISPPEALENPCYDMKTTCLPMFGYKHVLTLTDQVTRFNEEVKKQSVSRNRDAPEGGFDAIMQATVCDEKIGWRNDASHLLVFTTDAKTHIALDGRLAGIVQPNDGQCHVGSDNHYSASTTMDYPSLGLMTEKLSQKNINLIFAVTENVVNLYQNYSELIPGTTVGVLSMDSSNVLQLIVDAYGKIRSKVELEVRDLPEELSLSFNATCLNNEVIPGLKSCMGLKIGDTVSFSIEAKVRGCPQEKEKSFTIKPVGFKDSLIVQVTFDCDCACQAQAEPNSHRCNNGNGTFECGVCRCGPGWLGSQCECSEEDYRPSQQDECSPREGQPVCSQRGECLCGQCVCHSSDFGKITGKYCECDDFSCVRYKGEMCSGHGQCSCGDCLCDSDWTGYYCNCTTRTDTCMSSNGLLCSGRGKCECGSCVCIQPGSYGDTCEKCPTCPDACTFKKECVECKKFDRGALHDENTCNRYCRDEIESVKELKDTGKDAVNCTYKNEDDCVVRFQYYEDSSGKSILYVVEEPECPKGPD
T2 sequence (P06756 31-992 limits assumed): as the sequence (P06756 31-992 limits assumed) above
T2 sequence (P05556 21-728 limits assumed): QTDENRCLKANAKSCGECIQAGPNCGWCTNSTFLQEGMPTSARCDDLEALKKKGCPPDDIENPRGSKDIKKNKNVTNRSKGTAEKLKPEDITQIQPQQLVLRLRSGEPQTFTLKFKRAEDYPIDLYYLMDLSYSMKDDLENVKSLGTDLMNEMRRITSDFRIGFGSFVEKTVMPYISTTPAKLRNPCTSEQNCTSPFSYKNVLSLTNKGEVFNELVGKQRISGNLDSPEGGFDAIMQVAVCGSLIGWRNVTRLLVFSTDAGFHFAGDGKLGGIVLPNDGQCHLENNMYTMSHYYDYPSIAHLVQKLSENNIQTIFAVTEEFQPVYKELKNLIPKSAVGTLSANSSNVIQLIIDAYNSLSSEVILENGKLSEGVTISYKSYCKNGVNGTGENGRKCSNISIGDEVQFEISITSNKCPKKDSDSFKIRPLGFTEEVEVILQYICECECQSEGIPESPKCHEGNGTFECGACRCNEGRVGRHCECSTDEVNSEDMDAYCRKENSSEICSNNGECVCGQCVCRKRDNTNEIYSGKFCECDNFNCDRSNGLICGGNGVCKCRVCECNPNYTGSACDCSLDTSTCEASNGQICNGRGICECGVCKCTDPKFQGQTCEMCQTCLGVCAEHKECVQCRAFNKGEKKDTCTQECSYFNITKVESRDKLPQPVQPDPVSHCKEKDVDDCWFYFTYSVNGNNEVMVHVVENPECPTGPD

## Cn1nc(CC(CC(=O)O)c2cc(C(C)(C)C)ccc2OC(F)(F)F)cc1OCCc1ccc2c(n1)NCCC2 (centres unmarked) [Example 20, 3-(5-(tert-butyl)-2-(trifluoromethoxy)phenyl)-4-(1-methyl-5-(2-(5,6,7,8-tetrahydro-1,8-naphthyridin-2-yl)ethoxy)-1H-pyrazol-3-yl)butanoic acid]
[1]
  IC50: 880 nM
[2]
  IC50: 6 nM

## COc1ccc(C2(C(F)F)CC2)cc1C(CC(=O)O)Cc1cc(OCCc2ccc3c(n2)NCCC3)n(C)n1 (centres unmarked) [Example 21, 3-[5-[1-(difluoromethyl)cyclopropyl]-2-methoxy-phenyl]-4-[1-methyl-5-[2-(5,6,7,8-tetrahydro-1,8-naphthyridin-2-yl)ethoxy]pyrazol-3-yl]butanoic acid]
[1]
  IC50: 340 nM
[2]
  IC50: 10 nM

## COc1ccc(C(C)(C)O)cc1C(CC(=O)O)Cc1cc(OCCc2ccc3c(n2)NCCC3)n(C)n1 (centres unmarked) [Example 22, 3-(5-(2-hydroxypropan-2-yl)-2-methoxyphenyl)-4-(1-methyl-5-(2-(5,6,7,8-tetrahydro-1,8-naphthyridin-2-yl)ethoxy)-1H-pyrazol-3-yl)butanoic acid]
[1]
  IC50: 5 nM
[2]
  IC50: 3 nM

## COc1ccc(C2COC2)cc1C(CC(=O)O)Cc1cc(OCCc2ccc3c(n2)NCCC3)n(C)n1 (centres unmarked) [Example 23, 3-[2-methoxy-5-(oxetan-3-yl)phenyl]-4-[1-methyl-5-[2-(5,6,7,8-tetrahydro-1,8-naphthyridin-2-yl)ethoxy]pyrazol-3-yl]butanoic acid]
[1]
  IC50: 26 nM
[2]
  IC50: 8 nM

## COc1ccc(S(F)(F)(F)(F)F)cc1C(CC(=O)O)Cc1cc(OCCc2ccc3c(n2)NCCC3)n(C)n1 (centres unmarked) [Example 24, 3-[2-methoxy-5-(pentafluoro-sulfanyl)phenyl]-4-[1-methyl-5-[2-(5,6,7,8-tetrahydro-1,8-naphthyridin-2-yl)ethoxy]pyrazol-3-yl]butanoic acid]
[1]
  IC50: 130 nM
[2]
  IC50: 9 nM

## COc1c(C(C)C)cc(C(CC(=O)O)Cc2cc(OCCc3ccc4c(n3)NCCC4)n(C)n2)cc1C(C)C (centres unmarked) [Example 25, 3-(3,5-diisopropyl-4-methoxy-phenyl)-4-[1-methyl-5-[2-(5,6,7,8-tetrahydro-1,8-naphthyridin-2-yl)ethoxy]pyrazol-3-yl]butanoic acid]
[1]
  IC50: 37 nM
[2]
  IC50: 6 nM

## COc1c(C(C)C)cc(C(CC(=O)O)Cc2csc(CCCc3ccc4c(n3)NCCC4)n2)cc1C(C)C (centres unmarked) [Example 26, 3-(3,5-diisopropyl-4-methoxy-phenyl)-4-[2-[3-(5,6,7,8-tetrahydro-1,8-naphthyridin-2-yl)propyl]thiazol-4-yl]butanoic acid]
[1]
  IC50: 530 nM
[2]
  IC50: 8 nM

## CC(C)(C)c1cc(C(CC(=O)O)Cc2csc(CCCc3ccc4c(n3)NCCC4)n2)cc(C(C)(C)C)c1 (centres unmarked) [Example 27, 3-(3,5-di-tert-butylphenyl)-4-(2-(3-(5,6,7,8-tetrahydro-1,8-naphthyridin-2-yl)propyl)thiazol-4-yl)butanoic acid]
[1]
  IC50: 2900 nM
[2]
  IC50: 11 nM

## COc1ccc(C(C)(C)C)cc1C(CC(=O)O)Cc1csc(CCCc2ccc3c(n2)NCCC3)n1 (centres unmarked) [Example 28, 3-(5-(tert-butyl)-2-methoxyphenyl)-4-(2-(3-(5,6,7,8-tetrahydro-1,8-naphthyridin-2-yl)propyl)thiazol-4-yl)butanoic acid]
[1]
  IC50: 1500 nM
[2]
  IC50: 6 nM

## COc1c(C(C)(C)C)cc(C(CC(=O)O)Cc2csc(CCCc3ccc4c(n3)NCCC4)n2)cc1C(C)(C)C (centres unmarked) [Example 29, 3-(3,5-di-tert-butyl-4-methoxyphenyl)-4-(2-(3-(5,6,7,8-tetrahydro-1,8-naphthyridin-2-yl)propyl)thiazol-4-yl)butanoic acid]
[1]
  IC50: 1600 nM
[2]
  IC50: 7 nM

## CC(C)(C)c1cc(C(CC(=O)O)Cc2csc(CCCc3ccc4c(n3)NCCC4)n2)cc(C2(C(F)F)CC2)c1 (centres unmarked) [Example 30, 3-[3-tert-butyl-5-[1-(difluoromethyl)cyclopropyl]phenyl]-4-[2-[3-(5,6,7,8-tetrahydro-1,8-naphthyridin-2-yl)propyl]thiazol-4-yl]butanoic acid]
[1]
  IC50: 720 nM
[2]
  IC50: 5 nM

## CC(C)(C)c1cc(C(CC(=O)O)Cc2csc(CCCc3ccc4c(n3)NCCC4)n2)cc(C(C)(C)C(F)(F)F)c1 (centres unmarked) [Example 31, 3-[3-tert-butyl-5-(2,2,2-trifluoro-1,1-dimethyl-ethyl)phenyl]-4-[2-[3-(5,6,7,8-tetrahydro-1,8-naphthyridin-2-yl)propyl]thiazol-4-yl]butanoic acid]
[1]
  IC50: 2600 nM
[2]
  IC50: 8 nM

## COCC1(c2cc(C(CC(=O)O)Cc3csc(CCCc4ccc5c(n4)NCCC5)n3)cc(C(C)(C)C)c2)CCOCC1 (centres unmarked) [Example 32, 3-[3-tert-butyl-5-[4-(methoxymethyl)tetrahydropyran-4-yl]phenyl]-4-[2-[3-(5,6,7,8-tetrahydro-1,8-naphthyridin-2-yl)propyl]thiazol-4-yl]butanoic acid]
[1]
  IC50: 600 nM
[2]
  IC50: 7 nM

## CC(C)(C)c1ccc(C#N)c(C(CC(=O)O)Cc2csc(CCCc3ccc4c(n3)NCCC4)n2)c1 (centres unmarked) [Example 33, 3-(5-tert-butyl-2-cyano-phenyl)-4-[2-[3-(5,6,7,8-tetrahydro-1,8-naphthyridin-2-yl)propyl]thiazol-4-yl]butanoic acid]
[1]
  IC50: 38 nM
[2]
  IC50: 2 nM

## CC(C)(C)c1ccc(Br)c(C(CC(=O)O)Cc2csc(CCCc3ccc4c(n3)NCCC4)n2)c1 (centres unmarked) [Example 34]
[1]
  IC50: 2500 nM
[2]
  IC50: 4 nM

## COc1ccc(C(F)(F)F)cc1C(CC(=O)O)Cc1csc(CCCc2ccc3c(n2)NCCC3)n1 (centres unmarked) [Example 35, 3-[2-methoxy-5-(trifluoromethyl)phenyl]-4-[2-[3-(5,6,7,8-tetrahydro-1,8-naphthyridin-2-yl)propyl]thiazol-4-yl]butanoic acid]
[1]
  IC50: 78 nM
[2]
  IC50: 5 nM

## COc1ccc(C2(C(F)F)CC2)cc1C(CC(=O)O)Cc1csc(CCCc2ccc3c(n2)NCCC3)n1 (centres unmarked) [Example 36, 3-(5-(1-(difluoromethyl)cyclopropyl)-2-methoxyphenyl)-4-(2-(3-(5,6,7,8-tetrahydro-1,8-naphthyridin-2-yl)propyl)thiazol-4-yl)butanoic acid]
[1]
  IC50: 840 nM
[2]
  IC50: 2 nM

## COc1ccc(C2=CCOCC2)cc1C(CC(=O)O)Cc1csc(CCCc2ccc3c(n2)NCCC3)n1 (centres unmarked) [Example 37, 3-[5-(3,6-dihydro-2H-pyran-4-yl)-2-methoxy-phenyl]-4-[2-[3-(5,6,7,8-tetrahydro-1,8-naphthyridin-2-yl)propyl]thiazol-4-yl]butanoic acid]
[1]
  IC50: 230 nM
[2]
  IC50: 3 nM

## COc1ccc(C2=CCOCC2)cc1[C@H](CC(=O)O)Cc1csc(CCCc2ccc3c(n2)NCCC3)n1 [Example 37A, (S)-3-(5-(3,6-dihydro-2H-pyran-4-yl)-2-methoxyphenyl)-4-(2-(3-(5,6,7,8-tetrahydro-1,8-naphthyridin-2-yl)propyl)thiazol-4-yl)butanoic acid trifluoroacetate]
[1]
  IC50: 160 nM
[2]
  IC50: 0.9 nM

## COc1ccc(C2=CCOCC2)cc1[C@@H](CC(=O)O)Cc1csc(CCCc2ccc3c(n2)NCCC3)n1 [Example 37B, (R)-3-(5-(3,6-dihydro-2H-pyran-4-yl)-2-methoxyphenyl)-4-(2-(3-(5,6,7,8-tetrahydro-1,8-naphthyridin-2-yl)propyl)thiazol-4-yl)butanoic acid trifluoroacetate]
[1]
  IC50: 940 nM
[2]
  IC50: 190 nM

## Cc1cc(C)n(-c2cccc(C(CC(=O)O)Cc3csc(CCc4ccc5c(n4)NCCC5)n3)c2)n1 (centres unmarked) [Example 38, 3-(3-(3,5-dimethyl-1H-pyrazol-1-yl)phenyl)-4-(2-(2-(5,6,7,8-tetrahydro-1,8-naphthyridin-2-yl)ethyl)thiazol-4-yl)butanoic acid]
[1]
  IC50: 9 nM
[2]
  IC50: 15 nM

## CC(C)(C)c1cc(C(CC(=O)O)Cc2cc(OCCc3ccc4c(n3)NCCC4)n(CC(F)(F)F)n2)cc(C(C)(C)C)c1 (centres unmarked) [Example 40, 3-(3,5-di-tert-butylphenyl)-4-(5-(2-(5,6,7,8-tetrahydro-1,8-naphthyridin-2-yl)ethoxy)-1-(2,2,2-trifluoroethyl)-1H-pyrazol-3-yl)butanoic acid trifluoroacetate]
[1]
  IC50: 740 nM
[2]
  IC50: 3 nM
